Experimental data published in publication PMC4657098, “A Review of the Updated Pharmacophore for the Alpha 5 GABA(A) Benzodiazepine Receptor Model” (International Journal of Medicinal Chemistry, 2015).
Read-outs that look alike come from different tables or passages of the source.

Assays:
Design in all cases: expressed in transfected cells
α1β3γ2 GABAA/BzR = α1β3γ2 GABAA/BzR (Homo sapiens, UniProt P14867+P18507); experiment: Competition binding to HEK cell membranes, α1β3γ2; conditions: read-out: Ki α1
α5β3γ2 GABAA/BzR = α5β3γ2 GABAA/BzR (Homo sapiens, UniProt P18507+P31644); experiment: Competition binding to HEK cell membranes, α5β3γ2; conditions: read-out: Ki α5
α6β3γ2 GABAA/BzR = α6β3γ2 GABAA/BzR (Homo sapiens, UniProt P18507+Q16445); experiment: Competition binding to HEK cell membranes, α6β3γ2
α2β3γ2 GABAA/BzR = α2β3γ2 GABAA/BzR (Homo sapiens, UniProt P18507+P47869); experiment: Competition binding to HEK cell membranes, α2β3γ2; conditions: read-out: Ki α2
α3β3γ2 GABAA/BzR = α3β3γ2 GABAA/BzR (Homo sapiens, UniProt P18507+P34903); experiment: Competition binding to HEK cell membranes, α3β3γ2; conditions: read-out: Ki α3

Row | Compound | Ki (α1β3γ2 GABAA/BzR) | Ki (α5β3γ2 GABAA/BzR) | Ki (α6β3γ2 GABAA/BzR; read-out: Ki α6) | Ki (α2β3γ2 GABAA/BzR) | Ki (α3β3γ2 GABAA/BzR) | Ki (α6β3γ2 GABAA/BzR; Ki α6)
1 | C[Si](C)(C)C#Cc1ccc2c(c1)C(=O)N1CCC[C@H]1c1c(C(=O)OCC(F)(F)F)ncn1-2 [JYI-11] | 5000 nM | 648 nM | 3.97 nM | 5000 nM |  | 
2 | C=Cc1ccc2c(c1)C(=O)N1CCC[C@H]1c1c(C(=O)OCC(F)(F)F)ncn1-2 [JYI-12] | 91 nM | 4.5 nM | 6.8 nM | 39 nM |  | 
3 | O=C(OCC(F)(F)F)c1ncn2c1C1CCCN1C(=O)c1cc(-c3ccco3)ccc1-2 (centres unmarked) [JYI-13] | 5000 nM | 16 nM | 8.38 nM | 63.7 nM |  | 
4 | O=C(OCC(F)(F)F)c1ncn2c1[C@@H]1CCCN1C(=O)c1ccccc1-2 [JYI-14] | 32 nM | 13 nM | 565 nM | 25 nM |  | 
5 | C#Cc1ccc2c(c1)C(=O)N1CCC[C@H]1c1c(C(=O)OCC(F)(F)F)ncn1-2 [JYI-15] | 205 nM | 4.8 nM | 22 nM | 812 nM |  | 
6 | CC(C)(C)OC(=O)c1ncn2c1[C@@H]1CCCN1C(=O)c1cc(-c3cccs3)ccc1-2 [JYI-19] | 2.18 nM | 34 nM | 12.7 nM | 205 nM |  | 
7 | CCOC(=O)c1ncn2c1CN=C(c1ccccc1F)c1cc(Br)ccc1-2 [JYI-32] | 3.07 nM | 2.92 nM | 52.2 nM | 4.96 nM |  | 
8 | O=C1CN=C(c2ccccc2F)c2cc(Br)ccc2N1 [JYI-42] | 0.257 nM | 0.256 nM |  | 0.146 nM | 0.278 nM | 
9 | O=C(O)c1ncn2c1CN=C(c1ccccc1F)c1cc(Br)ccc1-2 [JYI-47] | 2.76 nM | 0.427 nM |  | 2.28 nM | 0.511 nM | 
10 | CCOC(=O)c1ncn2c1CN=C(c1ccccc1F)c1cc(-c3ccco3)ccc1-2 [JYI-48] | 75.6 nM | 31.3 nM |  | 90.7 nM | 12.8 nM | 
11 | O=C(OCC(F)(F)F)c1ncn2c1CN=C(c1ccccc1F)c1cc(Br)ccc1-2 [JYI-49] | 1.87 nM | 6.7 nM | 3390 nM | 2.38 nM |  | 
12 | C[Si](C)(C)C#Cc1ccc2c(c1)C(c1ccccc1F)=NCC(=O)N2 [JYI-55] | 41.4 nM | 24.8 nM |  |  | 0.504 nM | 
13 | Cc1nnc2n1-c1ccc(Br)cc1C(c1ccccc1F)=NC2 [JYI-57] | 0.076 nM | 0.036 nM |  | 0.076 nM | 0.131 nM | 
14 | C#Cc1ccc2c(c1)C(c1ccccc1F)=NCc1c(C(=O)OCC(F)(F)F)ncn1-2 [JYI-59 (C22H13N3O2F4)] |  |  | 5000 nM | 2.6 nM |  | 
15 | C#Cc1ccc2c(c1)C(c1ccccc1F)=NCC(=O)N2 [JYI-60 (C17H11N2OF)] |  | 1.7 nM | 5000 nM |  | 4.3 nM | 
16 | C#Cc1ccc2c(c1)C(c1ccccc1F)=NCc1nnc(C)n1-2 [JYI-70] | 6.3 nM | 0.56 nM | 5000 nM | 2.1 nM |  | 
17 | Cc1nnc2n1-c1ccc(C#C[Si](C)(C)C)cc1C(c1ccccc1F)=NC2 [JYI-72] | 48.5 nM | 11.5 nM |  | 18.5 nM |  | 
18 | CCOC(=O)c1ncc2[nH]c3cc(OC)c(OC)cc3c2c1CC [MSR-I-032] | 6.2 nM |  | 74.9 nM | 18.7 nM | 4 nM | 
19 | CN(C)C=C1N=C2CN=C(c3ccccc3)c3cc(Br)ccc3N2C1=O [PS-1-34B] |  |  |  | 4.2 nM | 3.93 nM | 
20 | CN1CCN(C=C2N=C3CN=C(c4ccccc4)c4cc(Br)ccc4N3C2=O)CC1 [PS-1-35] |  |  |  | 16 nM | 24.4 nM | 
21 | COc1ccc(-n2nc3c4cc(Cl)ccc4[nH]cc-3c2=O)cc1 [PZII-028] | 0.2 nM | 0.32 nM | 1.9 nM |  | 0.2 nM | 
22 | COc1ccc(-n2nc3c4ccc(OC)cc4[nH]cc-3c2=O)cc1 [PZII-029] | 0.34 nM | 0.52 nM | 10 nM |  | 0.79 nM | 
23 | C#Cc1ccc2c(c1)C(c1ccccc1F)=N[C@@H](C)c1c(C(=O)OCC)ncn1-2 [SH-O53-S-CH3-2′F] |  |  |  |  |  | 5000 nM
24 | COCc1ncn2c1CN(C)C(=O)c1cc(Cl)ccc1-2 [SH-TSC-1] | 362 nM | 6.18 nM |  | 180 nM | 328 nM | 
25 | CC(C)(C)OC(=O)c1cc2c(cn1)[nH]c1ccccc12 [SH-TSC-2] |  | 69.3 nM |  | 0.0419 nM | 0.035 nM | 
26 | C#Cc1ccc2[nH]c3cnc(C(=O)OC(C)(C)C)cc3c2c1 [WY-TSC-4] |  | 51 nM |  |  | 1.63 nM | 
27 | Cc1nnc2n1-c1ccc(Br)cc1C(c1ccccc1)=NC2 [XLi268] | 2.81 nM | 0.624 nM |  | 0.686 nM |  | 
28 | C#Cc1ccc2c(c1)C(c1ccccc1Cl)=NCC(=O)N2C [XLi352] | 1.56 nM | 1.96 nM |  | 0.991 nM |  | 
